Consider 6 molecules from ChEMBL document CHEMBL3232872, “Cytotoxic constituents from Lobaria scrobiculata and a comparison of two bioassays for their evaluation” (J Nat Prod, 2014).

Data set [1] deals with HL-60. As to the kind of experiment: Cytotoxicity against human HL60 cells after 24 hrs by WST-1 assay. The data set is classed as functional, cell-based. To be noted: HL-60, 24 h.
In data set [2] the test system is HL-60. Nature of the data set: Cytotoxicity against human HL60 cells after 48 hrs by WST-1 assay. It counts as functional, cell-based. To be noted: HL-60, 48 h.
The subject of data set [3] is HeLa. Nature of the data set: Cytotoxicity against human HeLa cells after 24 hrs by WST-1 assay. The data set is classed as functional, cell-based.
Data set [4] has as its system HeLa. Nature of the data set: Cytotoxicity against human HeLa cells after 48 hrs by WST-1 assay. It counts as functional, cell-based.
Data set [5] concerns Vero. As to the kind of experiment: Cytotoxicity against African green monkey Vero cells after 24 hrs by Alamar Blue assay. It counts as cell-based. Particulars: Chlorocebus sabaeus. (The colour change of resazurin is a common sign of viable cells or microbes.)
Data set [6] relates to Vero. As to the kind of experiment: Cytotoxicity against African green monkey Vero cells after 48 hrs by Alamar Blue assay. It counts as cell-based. To be noted: Chlorocebus sabaeus.
Data set [7] relates to HL-60. As to the kind of experiment: Cytotoxicity against human HL60 cells assessed as metabolic activity at 50 ug/mL after 24 hrs by WST-1 assay. The data set is classed as functional, cell-based. A general note: Tetrazolium dyes change colour on reduction, which living cells bring about.
The test system of data set [8] is HL-60. Nature of the data set: Cytotoxicity against human HL60 cells assessed as decrease in cell viability at 50 ug/mL after 24 hrs by trypan blue assay. The data set is classed as functional, cell-based.
Data set [9] in a line: Chemical stability of the compound in methanol measured immediately post compound addition by LC-MS analysis. It counts as physicochemical. To be noted: read-out: Stability.
Data set [10] is described as follows: Chemical stability of the compound in methanol measured at 24 hrs by LC-MS analysis. The data set is classed as physicochemical. To be noted: read-out: Stability.
A short description of data set [11]: Chemical stability of the compound in methanol measured at 48 hrs by LC-MS analysis. It counts as physicochemical. To be noted: read-out: Stability.
Data set [12] is described as follows: Chemical stability of the compound in methanol measured at 72 hrs by LC-MS analysis. It counts as physicochemical. Particulars: read-out: Stability.
Data set [13] is described as follows: Drug degradation in methanol assessed as 2,3,4 trihydroxy-6-propylbenzoic acid methyl ester formation after 72 hrs by LC-MS analysis. It counts as physicochemical.
For data set [14], the system named is HL-60. Nature of the data set: Cytotoxicity against human HL60 cells assessed as metabolic activity at 10 ug/mL measured over 72 hrs by WST-1 assay. It counts as functional, cell-based.
The subject of data set [15] is HL-60. As to the kind of experiment: Cytotoxicity against human HL60 cells assessed as decrease in cell viability at 10 ug/mL measured over 72 hrs by trypan blue assay. It counts as functional, cell-based.
Data set [16] in a line: Drug degradation in methanol assessed as divaricatinic acid methyl ester formation after 72 hrs by LC-MS analysis. The data set is classed as physicochemical.
For data set [17], the system named is HL-60. As to the kind of experiment: Cytotoxicity against human HL60 cells after 72 hrs. It counts as functional, cell-based. To be noted: HL-60, 72 h.

Activity calls are given as the source filed them. The calls are words filed in the database; no cut-off is given here.

The IC50 is the concentration that gives 50% inhibition. `COc1cc(C)c2c(c1C=O)Oc1c(C=O)c(C(=O)O)c(O)c(C)c1OC2=O`: the IC50 was over 10 µM in the data set with HL-60 [1]; over 10 µM in the data set on HL-60 [2]; over 10 µM with HeLa [3]; over 10 µM with HeLa [4]; over 150 µM with Vero [5]; over 150 µM in the data set on Vero [6]. Further, the result in the data set on HL-60 [7] was inactive. Moreover, in the data set on HL-60 [8], the outcome was Active. The remaining at 0 h in [9] came out at 94.1%. Besides, the remaining at 24 h in data set [10] was found to be 88.5%. Besides, in data set [11], the remaining at 48 h stood at 89.6%. The remaining at 72 h in data set [12] worked out at 89.5%.
In the case of `CCCc1cc(OC)cc(O)c1C(=O)Oc1c(O)cc(CCC)c(C(=O)OC)c1O`, the IC50 in the data set on HL-60 [1] was over 10 µM; in the data set with HL-60 [2], 7.6 µM; in the data set on HeLa [3], over 10 µM; with HeLa [4], over 10 µM; in the data set on Vero [5] it was over 150 µM; with Vero [6], over 150 µM. In addition, the Stability entry in [13] and in data set [16] was “Unstable” each time. Moreover, the remaining at 0 h in data set [9] is 99.8%. Also, the remaining at 24 h in data set [10] turned out to be 63.8%. Also, the remaining at 48 h in [11] was 35.3%. For the same molecule, the remaining at 72 h in data set [12] amounted to 22.1%. Besides, the outcome in the data set on HL-60 [14] and with HL-60 [15] was Active.
As to `CCCc1cc(O)cc(O)c1C(=O)OC`, the half-maximal inhibitory concentration (IC50) with HL-60 [1] is over 10 µM; in the data set with HL-60 [2], over 10 µM; with HeLa [3], over 10 µM; with HeLa [4], over 10 µM; with Vero [5] it was over 150 µM; in the data set with Vero [6], over 150 µM. Further, the remaining at 0 h in data set [9] is 99.8%. Further, in data set [10], the remaining at 24 h was found to be 99.9%. For the same molecule, the remaining at 48 h in data set [11] was found to be 99.9%. Further, the remaining at 72 h in data set [12] is 99.9%.
Turning to `COc1cc(C)c2c(c1C=O)Oc1c(c(C)c(O)c3c1C(O)OC3=O)OC2=O` (centres undefined) [STICTIC ACID], the IC50 in the data set on HL-60 [1] is over 10 µM; in the data set with HL-60 [2], over 10 µM; with HeLa [3] it was over 10 µM; with HeLa [4], over 10 µM; in the data set with Vero [5] it was over 150 µM; with Vero [6] it was over 150 µM. Also, the outcome in the data set on HL-60 [7] was inactive. In the data set on HL-60 [8], the outcome was Active. In addition, the remaining at 0 h in data set [9] was 89.7%. The remaining at 24 h in [10] came to 90.1%. For the same molecule, the remaining at 48 h in data set [11] is 91.8%. Also, in data set [12], the remaining at 72 h came out at 91.8%.
As to `CC(=O)C1=C(O)C=C2Oc3c(C(C)=O)c(O)c(C)c(O)c3[C@@]2(C)C1=O` [(+)-USNIC ACID], the IC50 is 5.4 µM in the data set on HL-60 [1]; 1.7 µM in the data set on HL-60 [2]; over 10 µM in the data set on HeLa [3]; over 10 µM in the data set on HeLa [4]; over 150 µM with Vero [5]; over 150 µM in the data set on Vero [6]. The molecule further had an IC50 with HL-60 [17] of 48.5 µM. For the same molecule, the remaining at 0 h in data set [9] turned out to be 99.9%. For the same molecule, in data set [10], the remaining at 24 h is 99.9%. For the same molecule, the remaining at 48 h in data set [11] was determined as 99.9%. Moreover, the remaining at 72 h in [12] worked out at 99.9%.
Turning to `CCCc1cc(O)c(O)c(O)c1C(=O)OC`, the 50% inhibitory concentration (IC50) is over 10 µM with HL-60 [1]; over 10 µM in the data set on HL-60 [2]; over 10 µM in the data set with HeLa [3]; over 10 µM in the data set on HeLa [4]; over 150 µM in the data set with Vero [5]; over 150 µM in the data set on Vero [6]. In data set [9], the remaining at 0 h turned out to be 97.8%. Moreover, the remaining at 24 h in data set [10] came out at 95%. The remaining at 48 h in [11] is 94.6%. In data set [12], the remaining at 72 h is 94.8%.
